According to patent US20050249743A1, “Isolated peptides which bind to HLA-A24 molecules and uses thereof” (priority 2004, published 2005):
Where no end group is shown, it is not given here.

Experiments:
[1] = molecular target: T1, HLA-A2402 (Homo sapiens, UniProt P04439, D101N/D140Y/D185E/E176V/E190D/F33S/G103R/G107R/I119L/I121M/I306V/K335N/L105A/L180Q/L300P/N151K/N90K/Q86E/Q94H/R106L/R138H/R89G/T104I/T345S/V100E/W191G/Y123F); test: in vitro folding of recombinant HLA-A2402 with beta2-microglobulin and peptide (tetramer production); format: binding; settings: recombinant HLA-A2402 folded in vitro with beta2-microglobulin and peptide
T1 construct: made in house; host or cells: E. coli
Source text: (§1) Recombinant HLA-A2402 molecules produced in E. coli were folded in vitro with beta2-microglobulin and peptide NYKRCFPVI (SEQ ID NO: 1) from MAGE-4, or peptide LYVDSLFFL (SEQ. ID NO: 2) from PRAME (control) (See Ikeda, et al., Immunity 6:199-208 (1997)), in accordance with Altman, et al., Science 274:94-96 (1996). The peptide of SEQ ID NO: 1 corresponds to amino acids 143-151 of MAGE-4. This specific peptide was selected because it is homologous to the peptide NYKHCFPEI (SEQ ID NO: 3), a MAGE-1 encoded peptide previously shown to be recognized by HLA-A24 restricted T cells. See Fujie, et al., Int. J. Cancer 80(2):169-172 (1999).
The HLA-peptide complexes were then purified by gel filtration, biotinylated and mixed as described in Altman, et al., supra with extraviden-phycoerythrin (PE) for the HLA-A24/MAGE-4 tetramer, or streptavidin-APC for the PRAME control tetramer. Both extravidin-PE and streptavidin-APC are commercially available. The tetramers were then used to label T cells, as described in the next example.

[2] = system: HLA-A24+ Epstein Barr Virus-transformed B (EBV-B) cells; test: chromium release assay, CTL 13 against peptide pulsed EBV-B cells; format: cell-based
Protocol: In this experiment, CTL 13 was tested for specific lytic activity in standard chromium release assays.
In the assay, the targets of CTL 13 were HLA-A24^+ Epstein Barr Virus-transformed B (EBV-B) cells. The EBV-B cells were cultured in IMDM supplemented with 10% fetal calf serum, 0.24 mM L-asparagine, 0.55 mM L-arginine, AAG, 100 U/ml penicillin and 100 μg/ml streptomycin. The EBV-B cells were labeled with ^51Cr for one hour according to standard methods and then incubated for 5 minutes with peptide NYKRCFPVI (SEQ ID NO: 1) (1 μg/ml). The ^51Cr labeled, peptide pulsed EBV-B cells (targets) were then combined with CTL 13 (effector) at effector-to-target ratios shown in FIG. 3A. Chromium release was measured after 4 hours.
In further experiments, the HLA-A24 EBV-B cells were labeled with ^51Cr for one hour according to standard methods and then incubated for 15 minutes with threefold dilutions of the synthetic peptide NYKRCFPVI (SEQ ID NO: 1). CTL 13 was subsequently added at an effector-to-target ratio of 10:1 and chromium release was measured after 4 hours. The concentration of peptide shown in FIG. 3B corresponds to the concentrations during the 4 hour incubation. […] This is in the range of concentration observed for the previously identified antigenic MAGE peptides, for which values ranging from 0.05 to 200 nM have been observed. […]

[3] = molecular target: Recombinant HLA-A2402 molecules produced in E. coli, folded with beta2-microglobulin (human); test: in vitro folding of recombinant HLA-A2402 with beta2-microglobulin and peptide
Source text: as §1, with “NYKRCFPVI” left out, “LYVDSLFFL” left out, “NYKHCFPEI” left out

NYKRCFPVI [SEQ ID NO: 1, NYKRCFPVI]
formation of HLA-A2402/peptide complexes [1]: successful production of HLA-A2402 and SEQ ID NO: 1 peptide complexes | EC50 ([2]; CTL 13, effector-to-target ratio 10:1, chromium release after 4 hours, read-out: peptide concentration giving half maximal lysis of peptide pulsed HLA-A24 target cells): 8 nM | lysis of peptide pulsed target cells by CTL 13 ([2]; peptide 1 μg/ml, 5 minutes pulse, chromium release after 4 hours, unpulsed control targets not lysed): lysed target cells pulsed with SEQ ID NO: 1 peptide

B1: peptide NYKRCFPVI (SEQ ID NO: 1) from MAGE-4 (peptide)
peptide: NYKRCFPVI
notes: Synthetic 9-mer; also called MAGE-4 antigenic peptide; MAGE-4.A24 peptide
binding result [3]: binds
